We go through 16 compounds from ChEMBL document CHEMBL6074677, “Development of dual V1a/V2 antagonists containing triazolobenzazepine scaffold” (Eur J Med Chem, 2025).

Data set [1] can be described thus: Metabolic stability in mouse liver microsomes assessed as intrinsic clearance at 1 uM in presence of NADPH. In kind it is ADME, Microsome. As to conditions: read-out: CLH.
Another data set concerns the target Vasopressin V2 receptor (Homo sapiens, UniProt P30518). Kind of data set: Displacement of [3H]AVP from human vasopressin V2 receptor expressed in human 1321N1 cells assessed as inhibition constant. Type of data set: cell-based. Background: In a radioligand displacement assay an active substance lowers the binding of a labelled ligand.
The target of data set [2] is T1, Vasopressin V1a receptor (Homo sapiens, UniProt P37288). Description: Displacement of [3H]AVP from human vasopressin V1a receptor expressed in human 1321N1 cells assessed as inhibition constant. Type of data set: cell-based.
T1 sequence (P37288 whole entry): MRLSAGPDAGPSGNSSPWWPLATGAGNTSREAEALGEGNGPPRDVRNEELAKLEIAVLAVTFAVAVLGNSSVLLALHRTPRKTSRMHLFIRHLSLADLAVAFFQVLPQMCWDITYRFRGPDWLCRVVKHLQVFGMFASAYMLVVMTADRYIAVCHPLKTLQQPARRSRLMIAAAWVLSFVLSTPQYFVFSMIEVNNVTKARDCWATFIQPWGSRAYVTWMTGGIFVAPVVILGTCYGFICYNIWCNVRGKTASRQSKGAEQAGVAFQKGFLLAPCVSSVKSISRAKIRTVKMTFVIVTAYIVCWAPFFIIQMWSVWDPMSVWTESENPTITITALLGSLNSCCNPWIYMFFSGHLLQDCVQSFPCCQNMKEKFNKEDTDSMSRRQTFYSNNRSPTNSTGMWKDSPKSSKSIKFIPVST
The nature of data set [3]: Metabolic stability in human liver microsomes assessed as intrinsic clearance at 1 uM in presence of NADPH. Type of data set: ADME, Microsome. To be noted: read-out: CLH.
Data set [4] is described as follows: Metabolic stability in rat liver microsomes assessed as intrinsic clearance at 1 uM in presence of NADPH. Type of data set: ADME, Microsome. As to conditions: read-out: CLH.
Data set [5] deals with Vasopressin V1a receptor (Mus musculus) (UniProt Q62463). Kind of data set: In vivo antagonist activity at vasopressin V1a receptor in male NMRI mouse assessed as inhibition of oxytocin-induced scratching behavior at 1 mg/kg, po pretreated with compound for 60 mins followed by oxytocin administration and measured after 1 hrs relative to control. Type of data set: functional, organism-based. As to conditions: time 120.0 min.
Vasopressin V1a receptor (Mus musculus), sequence (Q62463 whole entry, looked up): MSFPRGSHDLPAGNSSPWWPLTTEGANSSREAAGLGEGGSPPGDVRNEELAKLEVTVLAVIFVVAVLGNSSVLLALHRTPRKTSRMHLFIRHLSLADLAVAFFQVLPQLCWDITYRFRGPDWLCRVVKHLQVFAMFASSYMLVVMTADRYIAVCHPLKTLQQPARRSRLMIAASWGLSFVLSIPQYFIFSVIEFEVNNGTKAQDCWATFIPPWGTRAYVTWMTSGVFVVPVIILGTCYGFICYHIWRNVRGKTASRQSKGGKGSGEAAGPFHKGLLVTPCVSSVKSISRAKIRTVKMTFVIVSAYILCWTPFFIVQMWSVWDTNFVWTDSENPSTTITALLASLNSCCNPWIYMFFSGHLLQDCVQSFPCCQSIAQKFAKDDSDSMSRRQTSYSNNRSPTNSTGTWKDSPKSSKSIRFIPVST

Data set [6] concerns the target Voltage-gated inwardly rectifying potassium channel KCNH2 (Homo sapiens, UniProt Q12809). Description: Inhibition of human ERG expressed in CHO cells at -80 mV holding potential measured for 7 to 10 mins by automated patch clamp method. Type of data set: toxicity, cell-based.
In data set [7] the target is Vasopressin V1a receptor (Mus musculus, UniProt Q62463). Kind of data set: Displacement of [3H]AVP from mouse vasopressin V1a receptor expressed in human 1321N1 cells assessed as inhibition constant. Type of data set: cell-based.
Vasopressin V1a receptor (Mus musculus, UniProt Q62463), sequence (Q62463 whole entry): as the sequence (Q62463 whole entry, looked up) above
For data set [8], the target named is T1, Vasopressin V1a receptor. Description: Displacement of [3H]AVP from human vasopressin V1a receptor expressed in human 1321N1 cells. Type of data set: cell-based.
The target in data set [9] is Vasopressin V1a receptor (Mus musculus) (UniProt Q62463). Description: In vivo antagonist activity at vasopressin V1a receptor in male NMRI mouse assessed as inhibition of oxytocin-induced scratching behavior at 0.3 mg/kg, po pretreated with compound for 60 mins followed by oxytocin administration and measured after 1 hrs relative to control. In kind it is functional, organism-based. To be noted: time 120.0 min.

Data set [10] has the same target. Kind of data set: In vivo antagonist activity at vasopressin V1a receptor in male NMRI mouse assessed as inhibition of oxytocin-induced scratching behavior at 3 mg/kg, po pretreated with compound for 60 mins followed by oxytocin administration and measured after 1 hrs relative to control. In kind it is functional, organism-based. As to conditions: time 120.0 min.

Data set [11] in a line: Apparent permeability across apical to basolateral side in vinblastine treated human Caco-2 cells incubated for 15 to 60 mins by HPLC analysis. Type of data set: ADME, cell-based. As to conditions: time 15-60 min.

Voltage-gated inwardly rectifying potassium channel KCNH2, sequence (Q12809 whole entry): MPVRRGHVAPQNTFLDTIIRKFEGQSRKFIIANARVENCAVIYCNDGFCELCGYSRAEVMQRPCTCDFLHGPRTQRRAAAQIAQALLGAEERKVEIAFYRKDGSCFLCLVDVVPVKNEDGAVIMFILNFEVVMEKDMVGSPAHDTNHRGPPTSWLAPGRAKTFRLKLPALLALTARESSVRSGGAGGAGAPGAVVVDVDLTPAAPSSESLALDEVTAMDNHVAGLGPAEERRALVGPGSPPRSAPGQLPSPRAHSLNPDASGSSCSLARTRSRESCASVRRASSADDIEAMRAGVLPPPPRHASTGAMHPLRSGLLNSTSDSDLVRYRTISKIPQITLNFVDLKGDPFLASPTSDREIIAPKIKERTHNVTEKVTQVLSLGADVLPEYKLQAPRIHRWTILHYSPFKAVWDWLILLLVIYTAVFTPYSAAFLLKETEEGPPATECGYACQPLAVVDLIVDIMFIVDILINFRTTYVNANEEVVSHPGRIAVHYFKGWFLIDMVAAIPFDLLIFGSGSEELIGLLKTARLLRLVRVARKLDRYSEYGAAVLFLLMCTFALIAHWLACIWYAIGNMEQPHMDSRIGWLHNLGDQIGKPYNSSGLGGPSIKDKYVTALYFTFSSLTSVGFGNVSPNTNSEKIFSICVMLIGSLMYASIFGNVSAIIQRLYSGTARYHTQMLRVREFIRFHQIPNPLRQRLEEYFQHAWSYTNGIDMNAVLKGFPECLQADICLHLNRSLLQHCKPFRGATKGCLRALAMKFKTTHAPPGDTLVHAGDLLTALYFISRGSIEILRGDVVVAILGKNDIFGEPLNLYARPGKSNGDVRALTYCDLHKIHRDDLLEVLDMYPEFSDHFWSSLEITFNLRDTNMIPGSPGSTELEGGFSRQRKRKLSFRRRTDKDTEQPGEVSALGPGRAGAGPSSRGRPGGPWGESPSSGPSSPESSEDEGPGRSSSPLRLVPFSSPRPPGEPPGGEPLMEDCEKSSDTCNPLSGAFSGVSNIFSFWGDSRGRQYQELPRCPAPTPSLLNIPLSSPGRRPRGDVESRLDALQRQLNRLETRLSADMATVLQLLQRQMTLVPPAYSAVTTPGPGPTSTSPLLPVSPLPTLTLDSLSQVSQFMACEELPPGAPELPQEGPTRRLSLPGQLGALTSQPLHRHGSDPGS
Vasopressin V2 receptor, sequence (P30518 whole entry): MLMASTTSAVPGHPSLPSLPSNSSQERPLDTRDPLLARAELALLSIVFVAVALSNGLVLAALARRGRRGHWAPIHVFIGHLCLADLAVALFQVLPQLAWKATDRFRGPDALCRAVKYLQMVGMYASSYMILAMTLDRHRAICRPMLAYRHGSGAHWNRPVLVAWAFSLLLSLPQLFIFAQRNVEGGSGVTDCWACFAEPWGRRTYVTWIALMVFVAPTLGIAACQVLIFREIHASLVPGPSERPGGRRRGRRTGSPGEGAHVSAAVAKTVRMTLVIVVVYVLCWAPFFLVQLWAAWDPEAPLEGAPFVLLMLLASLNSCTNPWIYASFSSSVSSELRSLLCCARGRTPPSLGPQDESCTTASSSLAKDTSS

By Ki is commonly meant the dissociation constant of the complex between target and ligand, obtained from inhibition or displacement. `Clc1ccc2c(c1)CC1(Cc3nnc(N4CCN(c5nccc6ccsc56)CC4)n3-2)OCCO1`: the microsomal CLint at 1 µM in data set [1] is 83.3 µL/min/mg; in data set [3], 24.3 µL/min/mg; in data set [4], 141 µL/min/mg. Further, the Ki is 6.5 nM on Vasopressin V2 receptor and 0.14 nM at Vasopressin V1a receptor [2].

Consider `Clc1ccc2c(c1)CC1(Cc3nnc(N4CCC(c5cccc6c5OCO6)CC4)n3-2)OCCO1`, for which the Ki was 0.9 nM on Vasopressin V2 receptor and 0.2 nM on Vasopressin V1a receptor [2].

As usually defined, the inhibition is the relative decrease from the control value, in per cent. A word on the IC50: it is the concentration at which inhibition is half-maximal. Lower therefore signals greater potency in that assay. On to `Cc1cccc(N2CCN(c3nnc4n3-c3ccc(Cl)cc3CC3(C4)OCCO3)CC2)c1C`, for which the microsomal CLint at 1 µM in data set [1] was found to be 23.3 µL/min/mg; in [3], 5.8 µL/min/mg; in [4] it was 28 µL/min/mg. For the same compound, the Ki at Vasopressin V2 receptor is 0.7 nM; at Vasopressin V1a receptor [2], 0.5 nM; at Vasopressin V1a receptor [7], 0.4 nM. Further, the inhibition is 83% in [5], 69% in data set [9] and 104% in data set [10]. Further, the IC50 in data set [6] came to 10000 nM; on Vasopressin V1a receptor [8], 5.7 nM.

As to `Clc1ccc2c(c1)CC1(Cc3nnc(N4CCN(c5ncccc5Cl)CC4)n3-2)OCCO1`, the values for the microsomal CLint at 1 µM in [1], in data set [3] and in data set [4] were 58.5 µL/min/mg, 10.6 µL/min/mg and 51 µL/min/mg, respectively. Further, the inhibitory constant (Ki) at Vasopressin V2 receptor was 1.2 nM; on Vasopressin V1a receptor [2], 0.26 nM.

Usually Papp A→B stands for how fast a substance crosses the layer from the apical side. Consider `Clc1ccc2c(c1)CC1(Cc3nnc(N4CCC(Oc5ccccn5)CC4)n3-2)OCCO1`, for which the microsomal CLint at 1 µM in data set [1] is 28.4 µL/min/mg; in [3], 10.9 µL/min/mg; in data set [4], 33.3 µL/min/mg. Besides, at Vasopressin V2 receptor, the inhibitory constant (Ki) was 20 nM. Further, in data set [6], the half-inhibitory concentration (IC50) was found to be 8200 nM. Besides, in [11], the Papp A→B stood at 40.4 ×10⁻⁶ cm/s.

Consider `Clc1ccc2c(c1)CC1(Cc3nnc(N4CCN(c5cccc6c5OCO6)CC4)n3-2)OCCO1`, for which the microsomal CLint at 1 µM in data set [1] came out at 25.1 µL/min/mg; in data set [3], 8.8 µL/min/mg; in [4], 31.7 µL/min/mg. Further, the inhibitory constant (Ki) is 0.8 nM on Vasopressin V2 receptor and 0.25 nM at Vasopressin V1a receptor [2]. For the same compound, in data set [6], the IC50 was 11000 nM. Besides, the apparent permeability from apical to basolateral (Papp A→B) in data set [11] turned out to be 31 ×10⁻⁶ cm/s.

Take `Clc1ccc2c(c1)CC1(Cc3nnc(N4CCN(c5cccc6c5CCO6)CC4)n3-2)OCCO1`: the figures for the microsomal CLint at 1 µM in data set [1], in data set [3] and in data set [4] were 21.8 µL/min/mg, 11.5 µL/min/mg and 28.2 µL/min/mg, respectively. The figures for the Ki at Vasopressin V2 receptor and at Vasopressin V1a receptor [2] were 2.2 nM and 0.38 nM, respectively. In data set [6], this compound registered an IC50 of 10000 nM. Also, the Papp A→B in data set [11] was determined as 30 ×10⁻⁶ cm/s.

Take `Clc1ccc2c(c1)CC1(Cc3nnc(N4CCN(c5cccc6c5COC6)CC4)n3-2)OCCO1`: the microsomal CLint at 1 µM was found to be 30.5 µL/min/mg in data set [1], 17 µL/min/mg in data set [3] and 29.4 µL/min/mg in [4]. Further, the Ki was found to be 2.8 nM on Vasopressin V2 receptor and 0.5 nM on Vasopressin V1a receptor [2]. This compound also displayed a concentration for half-maximal inhibition (IC50) in data set [6] of 7900 nM.

On to `NC(=O)C1Cc2cc(Cl)ccc2-n2c(nnc2N2CCN(c3cccc(Cl)c3)CC2)C1` (stereo not given), for which the microsomal CLint at 1 µM in data set [1] came to 9.2 µL/min/mg; in [3], 3.7 µL/min/mg; in data set [4], 7 µL/min/mg. In addition, the Ki on Vasopressin V2 receptor amounted to 259 nM; at Vasopressin V1a receptor [2] it was 7.7 nM.

For `Clc1ccc2c(c1)CC1(Cc3nnc(N4CCC(N5CCCCC5)CC4)n3-2)OCCO1`, the microsomal CLint at 1 µM in data set [1] is 1.15 µL/min/mg; in data set [3], 0.2 µL/min/mg; in [4] it was 1.15 µL/min/mg. In addition, the inhibition constant (Ki) at Vasopressin V2 receptor was found to be 998 nM; on Vasopressin V1a receptor [2] it was 2.04 nM. The Papp A→B in data set [11] is 2.4 ×10⁻⁶ cm/s.

Consider `Cc1ccccc1C(=O)Nc1ccc(C(=O)N2CCCC(O)c3cc(Cl)ccc32)c(C)c1` (stereo not given) [TOLVAPTAN], for which the microsomal CLint at 1 µM in [1] stood at 32 µL/min/mg; in data set [3] it was 12 µL/min/mg; in data set [4], 168 µL/min/mg. Also, in data set [11], the Papp A→B was 46.7 ×10⁻⁶ cm/s.

In the case of `Cc1ccccc1C(=O)NC1CCN(c2nnc3n2-c2ccc(Cl)cc2CC2(C3)OCCO2)CC1`, the Ki at Vasopressin V2 receptor amounted to 9 nM; on Vasopressin V1a receptor [2], 0.35 nM.

`Clc1ccc2c(c1)CC1(Cc3nnc(N4CCN(c5nccc6ccoc56)CC4)n3-2)OCCO1`: the results for the microsomal CLint at 1 µM in data set [1], in data set [3] and in data set [4] were 44.6 µL/min/mg, 18 µL/min/mg and 110 µL/min/mg, respectively. Also, the values for the Ki on Vasopressin V2 receptor and at Vasopressin V1a receptor [2] were 21 nM and 0.28 nM, respectively.

On to `Clc1ccc2c(c1)CC1(Cc3nnc(C4CCN(c5cccc6c5COC6)CC4)n3-2)OCCO1`, for which the figures for the inhibition constant Ki at Vasopressin V2 receptor and on Vasopressin V1a receptor [2] were 26 nM and 0.21 nM, respectively.

`Clc1ccc2c(c1)CC1(Cc3nnc([C@H]4CC[C@H](Oc5ccccn5)CC4)n3-2)OCCO1`: the microsomal CLint at 1 µM stood at 25 µL/min/mg in [1], 13 µL/min/mg in data set [3] and 28 µL/min/mg in [4]. The inhibition turned out to be 86% in [5], 42% in [9] and 80% in [10]. The same compound displayed an IC50 in [6] of 9100 nM. In addition, in data set [11], the Papp A→B was determined as 59.3 ×10⁻⁶ cm/s.

As to `Clc1ccc2c(c1)CC1(Cc3nnc(N4CCC5(CC4)OCc4ccccc45)n3-2)OCCO1`, the microsomal CLint at 1 µM in data set [1] is 194 µL/min/mg; in [3], 12 µL/min/mg; in data set [4], 166 µL/min/mg. Moreover, the Ki at Vasopressin V2 receptor is 1.6 nM.
